Assay results reported in the supplement of paper PMC10307832.

Legend:
Experiment in all cases: relative viability (nuclei count vs DMSO), 5 days (fraction); higher = more cells survive
Elesclomol = compound: CN(NC(=O)CC(=O)NN(C)C(=S)c1ccccc1)C(=S)c1ccccc1 [Elesclomol]
How it was run: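 Viability was defined as treated-well nuclei divided by vehicle-well nuclei, with the median taken over replicate plates. Cells from lung cancer lines sat overnight at 37 °C in 1536-well plates, received five √10-spaced library-drug doses by pinning on vehicle-anchored plates, and grew 5 days without medium change before one-step fixation, permeabilisation and Hoechst staining, 4× imaging and MetaXpress nuclear counts. Only plates with control CV under 25% and at least one doubling were kept.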

Elesclomol + Luminespib = compound: CN(NC(=O)CC(=O)NN(C)C(=S)c1ccccc1)C(=S)c1ccccc1 [Elesclomol] + CCNC(=O)c1noc(-c2cc(C(C)C)c(O)cc2O)c1-c1ccc(CN2CCOCC2)cc1 [Luminespib] (partner 0.01 µM)
How it was run: (§1)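 Lung cancer cell lines were seeded in 1536-well plates and dosed by pin tool the next day, with either a single drug or a fixed anchor-drug dose combined with five library-drug doses (not always all listed) spaced in √10 steps. Five days later, one step fixed the cells and stained their nuclei (final 0.05% Triton X-100, 1% formaldehyde, 1 ug/ml Hoechst), and nuclei were counted on 4× images. Relative viability is the nuclei count in treated wells divided by the count in vehicle wells, and each value is the median of duplicate plates.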

Elesclomol + Crizotinib = compound: CN(NC(=O)CC(=O)NN(C)C(=S)c1ccccc1)C(=S)c1ccccc1 [Elesclomol] + C[C@@H](Oc1cc(-c2cnn(C3CCNCC3)c2)cnc1N)c1c(Cl)ccc(F)c1Cl [Crizotinib] (partner 1 µM)
How it was run: as §1

Elesclomol + Linsitinib = compound: CN(NC(=O)CC(=O)NN(C)C(=S)c1ccccc1)C(=S)c1ccccc1 [Elesclomol] + C[C@]1(O)C[C@@H](c2nc(-c3ccc4ccc(-c5ccccc5)nc4c3)c3c(N)nccn32)C1 [Linsitinib] (partner 1 µM)
How it was run: as §1

Elesclomol + Vorinostat = compound: CN(NC(=O)CC(=O)NN(C)C(=S)c1ccccc1)C(=S)c1ccccc1 [Elesclomol] + O=C(CCCCCCC(=O)Nc1ccccc1)NO [Vorinostat] (partner 1 µM)
How it was run: as §1

Row | Cell Line | relative viability (Elesclomol; 0.003162 µM) | relative viability (Elesclomol; 0.01 µM) | relative viability (Elesclomol; 0.03162 µM) | relative viability (Elesclomol; 0.1 µM) | relative viability (Elesclomol + Luminespib; first compound 0.003162 µM) | relative viability (Elesclomol + Luminespib; first compound 0.01 µM) | relative viability (Elesclomol + Luminespib; first compound 0.03162 µM) | relative viability (Elesclomol + Luminespib; first compound 0.1 µM) | relative viability (Elesclomol + Crizotinib; first compound 0.003162 µM) | relative viability (Elesclomol + Crizotinib; first compound 0.01 µM) | relative viability (Elesclomol + Crizotinib; first compound 0.03162 µM) | relative viability (Elesclomol + Crizotinib; first compound 0.1 µM) | relative viability (Elesclomol + Linsitinib; first compound 0.003162 µM) | relative viability (Elesclomol + Linsitinib; first compound 0.01 µM) | relative viability (Elesclomol + Linsitinib; first compound 0.03162 µM) | relative viability (Elesclomol + Linsitinib; first compound 0.1 µM) | relative viability (Elesclomol + Vorinostat; first compound 0.003162 µM) | relative viability (Elesclomol + Vorinostat; first compound 0.01 µM) | relative viability (Elesclomol + Vorinostat; first compound 0.03162 µM) | relative viability (Elesclomol + Vorinostat; first compound 0.1 µM)
1 | NCI-H2405 | 1.08 | 0.581 | 0.362 | 0.384 | 0.684 | 0.554 | 0.265 | 0.299 | 0.785 | 0.565 | 0.306 | 0.307 | 0.899 | 0.315 | 0.26 | 0.27 | 0.933 | 0.415 | 0.314 | 0.276
2 | NCI-H3122 | 0.987 | 1 | 0.957 | 0.349 | 0.083 | 0.113 | 0.0663 | 0.0832 | 0.253 | 0.329 | 0.296 | 0.217 | 1.04 | 1.07 | 0.956 | 0.228 | 0.652 | 1.02 | 0.881 | 0.111
3 | PC-3 [JPC-3] | 1.06 | 0.892 | 1.04 | 0.665 | 0.706 | 0.612 | 0.701 | 0.447 | 0.972 | 0.959 | 1.02 | 0.743 | 0.958 | 0.907 | 0.984 | 0.791 | 0.779 | 0.489 | 0.466 | 0.372
4 | PC-14 | 0.923 | 0.261 | 0.0507 | 0.039 | 0.11 | 0.0979 | 0.0814 | 0.0429 | 0.918 | 0.526 | 0.203 | 0.0548 | 0.98 | 0.85 | 0.0931 | 0.0455 | 0.0807 | 0.0343 | 0.0162 | 0.0149
5 | RERF-LC-KJ | 0.816 | 0.493 | 0.316 | 0.311 | 0.656 | 0.418 | 0.34 | 0.457 | 0.832 | 0.473 | 0.373 | 0.336 | 0.897 | 0.752 | 0.412 | 0.322 | 0.445 | 0.406 | 0.473 | 0.256
6 | SK-LU-1 | 1.07 | 0.779 | 0.659 | 0.287 | 0.206 | 0.193 | 0.158 | 0.124 | 0.904 | 0.677 | 0.362 | 0.141 | 1.11 | 0.835 | 0.405 | 0.12 | 0.83 | 0.659 | 0.471 | 0.336
7 | SK-MES-1 | 1.05 | 0.76 | 0.794 | 0.489 | 0.922 | 0.713 | 0.274 | 0.295 | 1.06 | 0.887 | 0.964 | 0.625 | 1.04 | 0.814 | 0.992 | 0.62 | 1.13 | 0.481 | 0.425 | 0.284
8 | SW 1573 | 0.795 | 0.267 | 0.121 | 0.0819 | 0.154 | 0.0972 | 0.0704 | 0.0142 | 0.806 | 0.344 | 0.147 | 0.128 | 0.706 | 0.224 | 0.116 | 0.102 | 0.331 | 0.107 | 0.112 | 0.0259
9 | UMC-11 | 1.05 | 0.939 | 0.709 | 0.612 | 1.04 | 1.02 | 0.604 | 0.413 | 0.649 | 0.445 | 0.343 | 0.183 | 1.02 | 1.05 | 0.672 | 0.615 | 0.391 | 0.333 | 0.411 | 0.255
